The subject of test [1] is DLD-1 (abnormal p53). The experiment in a line: Selectivity in killing p53 abnormal cell lines, cell counts. The test is classed as cell-based. Particulars: day 7. The protocol: (§1) Summary of lest results: Pairs of tumors of the same type were chosen, one expressing normal p53 and the other abnormal p53. Breast lines used were MCF7 for the normal p53, V4B, a MCF7 cells transformed with an empty vector, and VM4K, an MCF7 cells transfected with a vector encoding abnormal p53. In the colorectal cancer model HCT116 with a normal p53 was used and DLD-1 was used as the abnormal p53 cell line. The tumor cells were grown the presence and absence of carbendazim for 7 days. Cell growth rates were determined in each group by counting the cell numbers daily using a Coulter counter.

Test [2] relates to HCT116 (normal p53). Described as above. The test is classed as cell-based. Particulars: day 7. The protocol:
as §1

Test [3] deals with MCF7 (normal p53). Described as above. It is filed as cell-based. The conditions noted are these: day 7. As for the experimental part: as §1
In test [4] the test system is V4B (MCF7 transformed with empty vector). The test is described as above. Particulars: day 7. It is filed as cell-based. The protocol: as §1
The subject of test [5] is VM4K (MCF7 transfected with abnormal p53). The description is as above. The conditions noted are these: day 7. It is filed as cell-based. The protocol: as §1
The test system of test [6] is colon. Put plainly: Tumor growth reduction in mice models (Tables 5 and 6), colon. It is filed as in vivo. Particulars: HT29-colon, 2500 mg/kg.
The test system of test [7] is herpes. The experiment in a line: In vivo herpes screening test. Further details: species or system mice. Particulars: mouse, in vivo. As for the experimental part: The positive control was acyclovir at 75 mg/kg dose; 60% of the mice survived with a mean death date of 17.2 days.

Data on 1 molecule can be found in patent US6362207B1, “Methods of treating viral infections with benzimidazoles” (priority 1995, dated 2002).

Consider `COC(=O)Nc1nc2ccccc2[nH]1` [carbendazim, 2-methoxycarbonylamino-benzimidazole], for which the “cell counts, % of the control” value is reported as 34% in test [1] (DLD1, 1 μg/ml); “less than 10%” in test [1] (DLD-1, 5 μg/ml); “less than 10%” in test [1] (DLD-1, 10 μg/ml); 78% in test [2] (HCT 116, 1 μg/ml); “less than 10%” in test [2] (HCT116, 5 μg/ml); “less than 10%” in test [2] (HCT116, 10 μg/ml). Moreover, the “cell counts, % of the control” value in test [3] (5 μg/ml) is recorded as 45%; in test [3] (10 μg/ml) it was 36%; in test [4] (5 μg/ml), “less than 10%”; in test [4] (10 μg/ml) it was “less than 10%”; in test [5] (5 μg/ml), “less than 10%”; in test [5] (10 μg/ml) it was “less than 10%”. Moreover, the “Tumor Growth Decrease (%)” value in test [6] is 54%. In addition, the activity result in test [7] is recorded as “no activity”.
